According to patent publication US9902736B2, “1-oxo/acylation-14-acylated oridonin derivative, preparation method therefor and application thereof” (HANGZHOU BENSHENG PHARMACEUTICAL CO., LTD., priority 2012, dated 2018):
In brackets after ≈: the same amount, converted by molar mass.

tested on: RPMI 8226; assay: Multiple myeloma cell growth inhibition, MTT, 72 h; type: cell-based; settings: Homo sapiens
Protocol: Multiple myeloma cell lines: RPMI8226 (multiple myeloma), purchased from Fuxiang Bio-tech Co. Ltd., Shanghai, China.
(§1) 6000 well-growing cells were obtained and inoculated into wells of a 96-well cell culture plate. […] On the next day, the 1-oxo/acylated-14-acylated oridonin derivatives of different concentrations were added and mixed uniformly. The plate was placed in a carbon dioxide cell incubator (5% CO2) at 37° C. and incubated for 72 hours. Then the viable cell concentration was determined by MTT method.

IC50	IC90	Compound
0.46 µg/mL (≈ 0.918 µM)	1.79 µg/mL (≈ 3.57 µM)	C=C1C(=O)[C@]23[C@H](OC(=O)c4ccccc4Cl)[C@H]1CC[C@H]2[C@@]12CO[C@@]3(O)[C@@H](O)[C@@H]1C(C)(C)CCC2=O [BS-OR-003]

tested on: Hep-2; assay: Solid tumor cell growth inhibition, MTT, 72 h; type: cell-based, human; settings: Homo sapiens, HEp-2; 72 h, MTT
Protocol: (§2) 6000 well-growing human solid tumor cells were obtained and inoculated into wells of a 96-well cell culture plate. The culture medium was DMEM High Glucose cell culture medium containing 10% fetal bovine serum. The plate was placed in a carbon dioxide cell incubator (5% CO2) at 37° C. and incubated for 24 hours. After added with 1-oxo/acylated-14-acylated oridonin derivatives of different concentration and mixed uniformly, the plate was placed in a carbon dioxide cell incubator (5% CO2) at 37° C. and incubated for 72 hours. Then the viable cell concentration was determined by MTT method.

IC50	IC90	Compound
1.85 µg/mL (≈ 3.69 µM)	7.56 µg/mL (≈ 15.1 µM)	C=C1C(=O)[C@]23[C@H](OC(=O)c4ccccc4Cl)[C@H]1CC[C@H]2[C@@]12CO[C@@]3(O)[C@@H](O)[C@@H]1C(C)(C)CCC2=O [BS-OR-003]

tested on: MGC-803; assay: Solid tumor cell growth inhibition, MTT, 72 h; type: cell-based, human; settings: Homo sapiens, MGC-803; 72 h, MTT
Protocol: as §2

IC50	IC90	Compound
1.43 µg/mL (≈ 2.85 µM)	10.7 µg/mL (≈ 21.4 µM)	C=C1C(=O)[C@]23[C@H](OC(=O)c4ccccc4Cl)[C@H]1CC[C@H]2[C@@]12CO[C@@]3(O)[C@@H](O)[C@@H]1C(C)(C)CCC2=O [BS-OR-003]

tested on: CNE; assay: Solid tumor cell growth inhibition, MTT, 72 h; type: cell-based, human; settings: Homo sapiens, CNE; 72 h, MTT
Protocol: as §2

IC50	IC90	Compound
1.93 µg/mL (≈ 3.85 µM)	6.62 µg/mL (≈ 13.2 µM)	C=C1C(=O)[C@]23[C@H](OC(=O)c4ccccc4Cl)[C@H]1CC[C@H]2[C@@]12CO[C@@]3(O)[C@@H](O)[C@@H]1C(C)(C)CCC2=O [BS-OR-003]

tested on: Hela; assay: Solid tumor cell growth inhibition, MTT, 72 h; type: cell-based, human; settings: Homo sapiens, HeLa; 72 h, MTT
Protocol: as §2

IC50	IC90	Compound
1.84 µg/mL (≈ 3.67 µM)	5.31 µg/mL (≈ 10.6 µM)	C=C1C(=O)[C@]23[C@H](OC(=O)c4ccccc4Cl)[C@H]1CC[C@H]2[C@@]12CO[C@@]3(O)[C@@H](O)[C@@H]1C(C)(C)CCC2=O [BS-OR-003]

tested on: SK-OV-3; assay: Solid tumor cell growth inhibition, MTT, 72 h; type: cell-based; settings: Homo sapiens, SK-OV-3; 72 h, MTT; read-out: IC50 SK-OV-3
Protocol: as §2

IC50	Compound
1.82 µg/mL (≈ 3.63 µM)	C=C1C(=O)[C@]23[C@H](OC(=O)c4ccccc4Cl)[C@H]1CC[C@H]2[C@@]12CO[C@@]3(O)[C@@H](O)[C@@H]1C(C)(C)CCC2=O [BS-OR-003]

same assay, conditions: Homo sapiens, SK-OV-3; 72 h, MTT; read-out: IC90 SK-OV-3

IC90	Compound
3.82 µg/mL (≈ 7.63 µM)	C=C1C(=O)[C@]23[C@H](OC(=O)c4ccccc4Cl)[C@H]1CC[C@H]2[C@@]12CO[C@@]3(O)[C@@H](O)[C@@H]1C(C)(C)CCC2=O [BS-OR-003]

tested on: Hep G2; assay: Solid tumor cell growth inhibition, MTT, 72 h; type: cell-based; settings: Homo sapiens, HepG2
Protocol: as §2

IC50	IC90	Compound
1.69 µg/mL (≈ 3.37 µM)	7.48 µg/mL (≈ 14.9 µM)	C=C1C(=O)[C@]23[C@H](OC(=O)c4ccccc4Cl)[C@H]1CC[C@H]2[C@@]12CO[C@@]3(O)[C@@H](O)[C@@H]1C(C)(C)CCC2=O [BS-OR-003]

tested on: A549; assay: Solid tumor cell growth inhibition, MTT, 72 h; type: cell-based; settings: Homo sapiens
Protocol: as §2

IC50	IC90	Compound
2.82 µg/mL (≈ 5.63 µM)	5.64 µg/mL (≈ 11.3 µM)	C=C1C(=O)[C@]23[C@H](OC(=O)c4ccccc4Cl)[C@H]1CC[C@H]2[C@@]12CO[C@@]3(O)[C@@H](O)[C@@H]1C(C)(C)CCC2=O [BS-OR-003]

tested on: CaEs-17; assay: Solid tumor cell growth inhibition, MTT, 72 h; type: cell-based; settings: Homo sapiens, CaEs17
Protocol: as §2

IC50	IC90	Compound
1.49 µg/mL (≈ 2.97 µM)	5.23 µg/mL (≈ 10.4 µM)	C=C1C(=O)[C@]23[C@H](OC(=O)c4ccccc4Cl)[C@H]1CC[C@H]2[C@@]12CO[C@@]3(O)[C@@H](O)[C@@H]1C(C)(C)CCC2=O [BS-OR-003]

tested on: RKO; assay: Solid tumor cell growth inhibition, MTT, 72 h; type: cell-based; settings: Homo sapiens
Protocol: as §2

IC50	IC90	Compound
0.66 µg/mL (≈ 1.32 µM)	1.49 µg/mL (≈ 2.97 µM)	C=C1C(=O)[C@]23[C@H](OC(=O)c4ccccc4Cl)[C@H]1CC[C@H]2[C@@]12CO[C@@]3(O)[C@@H](O)[C@@H]1C(C)(C)CCC2=O [BS-OR-003]

tested on: Becap-37; assay: Solid tumor cell growth inhibition, MTT, 72 h; type: cell-based; settings: Homo sapiens
Protocol: as §2

IC50	IC90	Compound
1.12 µg/mL (≈ 2.24 µM)	3.09 µg/mL (≈ 6.17 µM)	C=C1C(=O)[C@]23[C@H](OC(=O)c4ccccc4Cl)[C@H]1CC[C@H]2[C@@]12CO[C@@]3(O)[C@@H](O)[C@@H]1C(C)(C)CCC2=O [BS-OR-003]

tested on: MG-63; assay: Solid tumor cell growth inhibition, MTT, 72 h; type: cell-based; settings: Homo sapiens
Protocol: as §2

IC50	IC90	Compound
0.48 µg/mL (≈ 0.958 µM)	2.74 µg/mL (≈ 5.47 µM)	C=C1C(=O)[C@]23[C@H](OC(=O)c4ccccc4Cl)[C@H]1CC[C@H]2[C@@]12CO[C@@]3(O)[C@@H](O)[C@@H]1C(C)(C)CCC2=O [BS-OR-003]

tested on: U87-MG; assay: Solid tumor cell growth inhibition, MTT, 72 h; type: cell-based; settings: Homo sapiens, U-87 MG
Protocol: as §2

IC50	IC90	Compound
0.99 µg/mL (≈ 1.98 µM)	2.82 µg/mL (≈ 5.63 µM)	C=C1C(=O)[C@]23[C@H](OC(=O)c4ccccc4Cl)[C@H]1CC[C@H]2[C@@]12CO[C@@]3(O)[C@@H](O)[C@@H]1C(C)(C)CCC2=O [BS-OR-003]

tested on: PC-3; assay: Solid tumor cell growth inhibition, MTT, 72 h; type: cell-based; settings: Homo sapiens
Protocol: as §2

IC50	IC90	Compound
1.82 µg/mL (≈ 3.63 µM)	3.82 µg/mL (≈ 7.63 µM)	C=C1C(=O)[C@]23[C@H](OC(=O)c4ccccc4Cl)[C@H]1CC[C@H]2[C@@]12CO[C@@]3(O)[C@@H](O)[C@@H]1C(C)(C)CCC2=O [BS-OR-003]

tested on: PANC-1; assay: Solid tumor cell growth inhibition, MTT, 72 h; type: cell-based; settings: Homo sapiens
Protocol: as §2

IC50	IC90	Compound
2.34 µg/mL (≈ 4.67 µM)	8.51 µg/mL (≈ 17 µM)	C=C1C(=O)[C@]23[C@H](OC(=O)c4ccccc4Cl)[C@H]1CC[C@H]2[C@@]12CO[C@@]3(O)[C@@H](O)[C@@H]1C(C)(C)CCC2=O [BS-OR-003]

tested on: NB4; assay: Leukemia cell growth inhibition, MTT, 72 h; type: cell-based, human; settings: Homo sapiens, NB-4; 72 h, MTT
From the text: (§3) Leukemia cell lines: leukemia cell lines: K562/adr (drug-resistant, chronic myeloid leukemia, CML), NB4 (acute promyelocytic leukemia, AML), Kasumi-1 (acute myeloid leukemia M2 type, AML-M2), Jurkat (acute lymphoblastic leukemia, ALL), all of which were donated by Cancer Research Institute of Zhejiang University, China; and H9 (acute lymphoblastic leukemia, ALL), which was purchased from China Center for Type Culture Collection.
as §1, with “6000 well-growing leukemia cells were” for “6000 well-growing cells were”, “C. and was incubated for” for “C. and incubated for”

IC50	IC90	Compound
0.22 µg/mL (≈ 0.439 µM)	0.81 µg/mL (≈ 1.62 µM)	C=C1C(=O)[C@]23[C@H](OC(=O)c4ccccc4Cl)[C@H]1CC[C@H]2[C@@]12CO[C@@]3(O)[C@@H](O)[C@@H]1C(C)(C)CCC2=O [BS-OR-003]

tested on: H9; assay: Leukemia cell growth inhibition, MTT, 72 h; type: cell-based, human; settings: Homo sapiens, H9; 72 h, MTT
From the text: as §3
as §1, with “6000 well-growing leukemia cells were” for “6000 well-growing cells were”, “C. and was incubated for” for “C. and incubated for”

IC50	IC90	Compound
0.83 µg/mL (≈ 1.66 µM)	1.82 µg/mL (≈ 3.63 µM)	C=C1C(=O)[C@]23[C@H](OC(=O)c4ccccc4Cl)[C@H]1CC[C@H]2[C@@]12CO[C@@]3(O)[C@@H](O)[C@@H]1C(C)(C)CCC2=O [BS-OR-003]

tested on: Jurkat; assay: Leukemia cell growth inhibition, MTT, 72 h; type: cell-based, human; settings: Homo sapiens, Jurkat; 72 h, MTT
From the text: as §3
as §1, with “6000 well-growing leukemia cells were” for “6000 well-growing cells were”, “C. and was incubated for” for “C. and incubated for”

IC50	IC90	Compound
0.81 µg/mL (≈ 1.62 µM)	2.72 µg/mL (≈ 5.43 µM)	C=C1C(=O)[C@]23[C@H](OC(=O)c4ccccc4Cl)[C@H]1CC[C@H]2[C@@]12CO[C@@]3(O)[C@@H](O)[C@@H]1C(C)(C)CCC2=O [BS-OR-003]

tested on: K562/ADR; assay: Leukemia cell growth inhibition, MTT, 72 h; type: cell-based; settings: Homo sapiens
From the text: as §3
as §1, with “6000 well-growing leukemia cells were” for “6000 well-growing cells were”, “C. and was incubated for” for “C. and incubated for”

IC50	IC90	Compound
0.71 µg/mL (≈ 1.42 µM)	2.07 µg/mL (≈ 4.13 µM)	C=C1C(=O)[C@]23[C@H](OC(=O)c4ccccc4Cl)[C@H]1CC[C@H]2[C@@]12CO[C@@]3(O)[C@@H](O)[C@@H]1C(C)(C)CCC2=O [BS-OR-003]

tested on: Kasumi-1; assay: Leukemia cell growth inhibition, MTT, 72 h; type: cell-based; settings: Homo sapiens
From the text: as §3
as §1, with “6000 well-growing leukemia cells were” for “6000 well-growing cells were”, “C. and was incubated for” for “C. and incubated for”

IC50	IC90	Compound
0.72 µg/mL (≈ 1.44 µM)	2.25 µg/mL (≈ 4.49 µM)	C=C1C(=O)[C@]23[C@H](OC(=O)c4ccccc4Cl)[C@H]1CC[C@H]2[C@@]12CO[C@@]3(O)[C@@H](O)[C@@H]1C(C)(C)CCC2=O [BS-OR-003]
